# Data published in patent US8349824B2, “Triazolopyridine compounds” (Hoffmann-La Roche Inc., priority 2010, dated 2013).
# Target: T1, human PDE10A full length (Homo sapiens, UniProt Q9Y233)
# T1 construct: purchased Enzo Life Science, Lausen, Switzerland SE-534
# Test: PDE10A Scintillation Proximity Assay (SPA), human PDE10A full length assay
# Format: biochemical
# Settings: 50 nM cGMP + 50 nM [3H]-cGMP, 20 minutes at room temperature, read-out: PDE10A inhibition IC50
# Description: The following test was carried out in order to determine the activity of the compounds of the present invention. PDE10 activity of the compounds of the present invention was determined using a Scintillation Proximity Assay (SPA)-based method similar to the one previously described (Fawcett, L. et al., Proc Natl Acad Sci USA (2000) 97(7):3702-3707).
# The human PDE10A full length assay was performed in 96-well micro titer plates. The reaction mixture of 50 μl contained 20 mM HEPES pH=7.5/10 mM MgCl2/0.05 mg/ml BSA (Sigma cat. #A-7906), 50 nM cGMP (Sigma, cat. #G6129) and 50 nM [^3H]-cGMP (GE Healthcare, cat. #TRK392 S.A. 13.2Ci/mmol), 3.75 ng/well PDE10A enzyme (Enzo Life Science, Lausen, Switzerland cat #SE-534) with or without a specific test compound. A range of concentrations of the potential inhibitor was used to generate data for calculating the concentration of inhibitor resulting in 50% of the effect (e.g. IC50, the concentration of the competitor inhibiting PDE10A activity by 50%). Non-specific activity was tested without the enzyme. The reaction was initiated by the addition of the substrate solution (cGMP and [^3H]-cGMP) and allowed to progress for 20 minutes at room temperature. The reaction was terminated by adding 25 μl of YSi-SPA scintillation beads (GE Healthcare, cat. #RPNQ0150) in 18 mM zinc sulphate solution (stop reagent). After 1 h under shaking, the plate was centrifuged one minute at 170 g to allow beads to settle. Afterwards, radioactive counts were measured on a Perkin Elmer TopCount Scintillation plate reader.
# T1 sequence (Q9Y233 1-779 isoform Q9Y233-1): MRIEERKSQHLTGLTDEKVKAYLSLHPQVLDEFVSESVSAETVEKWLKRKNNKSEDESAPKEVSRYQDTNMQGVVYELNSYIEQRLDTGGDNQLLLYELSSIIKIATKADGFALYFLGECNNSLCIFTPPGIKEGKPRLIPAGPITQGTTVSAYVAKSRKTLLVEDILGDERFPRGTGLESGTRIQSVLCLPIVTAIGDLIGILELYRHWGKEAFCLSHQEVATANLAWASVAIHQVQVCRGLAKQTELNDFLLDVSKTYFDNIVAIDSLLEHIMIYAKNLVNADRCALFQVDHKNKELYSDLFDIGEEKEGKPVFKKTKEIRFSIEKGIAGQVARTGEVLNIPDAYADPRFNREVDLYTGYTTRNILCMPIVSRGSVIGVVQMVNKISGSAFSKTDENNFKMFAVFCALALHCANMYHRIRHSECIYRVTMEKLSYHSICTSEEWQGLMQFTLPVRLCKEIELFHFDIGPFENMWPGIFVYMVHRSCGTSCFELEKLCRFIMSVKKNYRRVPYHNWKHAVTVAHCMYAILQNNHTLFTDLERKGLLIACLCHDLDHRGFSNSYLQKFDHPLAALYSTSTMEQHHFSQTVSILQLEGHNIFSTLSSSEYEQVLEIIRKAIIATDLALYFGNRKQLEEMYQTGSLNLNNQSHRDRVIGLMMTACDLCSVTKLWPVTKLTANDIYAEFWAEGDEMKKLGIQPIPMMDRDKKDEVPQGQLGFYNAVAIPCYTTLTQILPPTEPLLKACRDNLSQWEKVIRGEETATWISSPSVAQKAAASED
row,SMILES,IC50
1,"COc1cccc(-c2nc3cc(NC(=O)c4c(C(=O)N5CCOCC5)cnn4C)ccn3n2)c1 [Example 76, 2-Methyl-4-(morpholine-4-carbonyl)-2H-pyrazole-3-carboxylic acid [2-(3-methoxy-phenyl)-[1,2,4]triazolo[1,5-a]pyridin-7-yl]-amide]",5.15 nM
2,"CCN(C)C(=O)c1cnn(C)c1C(=O)Nc1ccn2nc(-c3cccc(OC)c3)nc2c1 [Example 79, 2-Methyl-2H-pyrazole-3,4-dicarboxylic acid 4-(ethyl-methyl-amide)3-{[2-(3-methoxy-phenyl)-[1,2,4]triazolo[1,5-a]pyridin-7-yl]-amide}]",1.73 nM
3,"Cn1ncc(C(=O)N2CCOCC2)c1C(=O)Nc1ccn2nc(-c3cccc(OCF)c3)nc2c1 [Example 82, 2-Methyl-4-(morpholine-4-carbonyl)-2H-pyrazole-3-carboxylic acid [2-(3-fluoromethoxy-phenyl)-[1,2,4]triazolo[1,5-a]pyridin-7-yl]-amide]",0.78 nM
4,"CCN(C)C(=O)c1cnn(C)c1C(=O)Nc1ccn2nc(-c3cccc(OCCF)c3)nc2c1 [Example 83, 2-Methyl-2H-pyrazole-3,4-dicarboxylic acid 4-(ethyl-methyl-amide)3-({2-[3-(2-fluoro-ethoxy)-phenyl]-[1,2,4]triazolo[1,5-a]pyridin-7-yl}-amide)]",0.63 nM
5,"CN(C)C(=O)c1cnn(C)c1C(=O)Nc1ccn2nc(-c3cccc(OCCF)c3)nc2c1 [Example 85, 2-Methyl-2H-pyrazole-3,4-dicarboxylic acid 4-dimethylamide 3-({2-[3-(2-fluoro-ethoxy)-phenyl]-[1,2,4]triazolo[1,5-a]pyridin-7-yl}-amide)]",0.73 nM
6,"Cn1ncc(C(=O)N2CCC2)c1C(=O)Nc1ccn2nc(-c3cccc(OCCF)c3)nc2c1 [Example 90, 4-(Azetidine-1-carbonyl)-2-methyl-2H-pyrazole-3-carboxylic acid {2-[3-(2-fluoro-ethoxy)-phenyl]-[1,2,4]triazolo[1,5-a]pyridin-7-yl}-amide]",1.02 nM
7,"Cn1ncc(C(=O)N2CCC2)c1C(=O)Nc1ccn2nc(-c3cccc(OCF)c3)nc2c1 [Example 91, 4-(Azetidine-1-carbonyl)-2-methyl-2H-pyrazole-3-carboxylic acid [2-(3-fluoromethoxy-phenyl)-[1,2,4]triazolo[1,5-a]pyridin-7-yl]-amide]",0.86 nM
8,"CN(CCO)C(=O)c1cnn(C)c1C(=O)Nc1ccn2nc(-c3ccccc3)nc2c1 [Example 92, 2-Methyl-2H-pyrazole-3,4-dicarboxylic acid 4-[(2-hydroxy-ethyl)-methyl-amide]3-[(2-phenyl-[1,2,4]triazolo[1,5-a]pyridin-7-yl)-amide]]",0.98 nM
9,"COC(=O)CN(C)C(=O)c1cnn(C)c1C(=O)Nc1ccn2nc(-c3ccccc3)nc2c1 [Example 93, {Methyl-[1-methyl-5-(2-phenyl-[1,2,4]triazolo[1,5-a]pyridin-7-ylcarbamoyl)-1H-pyrazole-4-carbonyl]-amino}-acetic acid methyl ester]",2.16 nM
10,"CN(CCO)C(=O)c1cnn(C)c1C(=O)Nc1ccn2nc(N3CCOCC3)nc2c1 [Example 94, 2-Methyl-2H-pyrazole-3,4-dicarboxylic acid 4-[(2-hydroxy-ethyl)-methyl-amide]3-[(2-morpholin-4-yl-[1,2,4]triazolo[1,5-a]pyridin-7-yl)-amide]]",20.4 nM
11,"COC(=O)CN(C)C(=O)c1cnn(C)c1C(=O)Nc1ccn2nc(N3CCOCC3)nc2c1 [Example 95, {Methyl-[1-methyl-5-(2-morpholin-4-yl-[1,2,4]triazolo[1,5-a]pyridin-7-ylcarbamoyl)-1H-pyrazole-4-carbonyl]-amino}-acetic acid methyl ester]",50.4 nM
12,"Cn1ncc(C(=O)NCCF)c1C(=O)Nc1ccn2nc(-c3ccccc3)nc2c1 [Example 96, 2-Methyl-2H-pyrazole-3,4-dicarboxylic acid 4-[(2-fluoro-ethyl)-amide]3-[(2-phenyl[1,2,4]triazolo[1,5-a]pyridin-7-yl)-amide]]",2.12 nM
13,"CCN(C)C(=O)c1cnn(C)c1C(=O)Nc1ccn2nc(-c3ccccc3OC)nc2c1 [Example 98, 2-Methyl-2H-pyrazole-3,4-dicarboxylic acid 4-(ethyl-methyl-amide)3-{[2-(2-methoxy-phenyl)-[1,2,4]triazolo[1,5-a]pyridin-7-yl]-amide}]",0.67 nM
14,"COCCN(C)C(=O)c1cnn(C)c1C(=O)Nc1ccn2nc(-c3ccccc3OC)nc2c1 [Example 99, 2-Methyl-2H-pyrazole-3,4-dicarboxylic acid 4-[(2-methoxy-ethyl)-methyl-amide]3-{[2-(2-methoxy-phenyl)-[1,2,4]triazolo[1,5-a]pyridin-7-yl]-amide}]",0.74 nM
15,"CCN(C)C(=O)c1cnn(C)c1C(=O)Nc1ccn2nc(-c3ccccc3OCCF)nc2c1 [Example 101, 2-Methyl-2H-pyrazole-3,4-dicarboxylic acid 4-(ethyl-methyl-amide)3-({2-[2-(2-fluoro-ethoxy)-phenyl]-[1,2,4]triazolo[1,5-a]pyridin-7-yl}-amide)]",0.65 nM
16,"CN1CCN(C(=O)c2cnn(C)c2C(=O)Nc2ccn3nc(-c4cccc(F)c4)nc3c2)CC1 [Example 108, 2-Methyl-4-(4-methyl-piperazine-1-carbonyl)-2H-pyrazole-3-carboxylic acid [2-(3-fluoro-phenyl)-[1,2,4]triazolo[1,5-a]pyridin-7-yl]-amide]",15.6 nM

# Stronger by IC50, values ahead:
row,IC50,SMILES
1,0.6 nM,"CN(C)C(=O)c1cnn(C)c1C(=O)Nc1ccn2nc(-c3cccc(OCF)c3)nc2c1 [Example 86, 2-Methyl-2H-pyrazole-3,4-dicarboxylic acid 4-dimethylamide 3-{[2-(3-fluoromethoxy-phenyl)-[1,2,4]triazolo[1,5-a]pyridin-7-yl]-amide}]"
2,0.59 nM,"Cn1ncc(C(=O)N2CCOCC2)c1C(=O)Nc1ccn2nc(-c3cccc(OCCF)c3)nc2c1 [Example 81, 2-Methyl-4-(morpholine-4-carbonyl)-2H-pyrazole-3-carboxylic acid {2-[3-(2-fluoro-ethoxy)-phenyl]-[1,2,4]triazolo[1,5-a]pyridin-7-yl}-amide]"
3,0.59 nM,"COCCN(C)C(=O)c1cnn(C)c1C(=O)Nc1ccn2nc(-c3cccc(OCF)c3)nc2c1 [Example 89, 2-Methyl-2H-pyrazole-3,4-dicarboxylic acid 3-{[2-(3-fluoromethoxy-phenyl)-[1,2,4]triazolo[1,5-a]pyridin-7-yl]-amide} 4-[(2-methoxy-ethyl)-methyl-amide]]"
4,0.57 nM,"COCCN(C)C(=O)c1cnn(C)c1C(=O)Nc1ccn2nc(-c3cccc(OC)c3)nc2c1 [Example 77, 2-Methyl-2H-pyrazole-3,4-dicarboxylic acid 4-[(2-methoxy-ethyl)-methyl-amide]3-{[2-(3-methoxy-phenyl)-[1,2,4]triazolo[1,5-a]pyridin-7-yl]-amide}]"
5,0.54 nM,"CCN(C)C(=O)c1cnn(C)c1C(=O)Nc1ccn2nc(-c3cccc(OCF)c3)nc2c1 [Example 84, 2-Methyl-2H-pyrazole-3,4-dicarboxylic acid 4-(ethyl-methyl-amide)3-{[2-(3-fluoromethoxy-phenyl)-[1,2,4]triazolo[1,5-a]pyridin-7-yl]-amide}]"
6,0.43 nM,"COCCN(C)C(=O)c1cnn(C)c1C(=O)Nc1ccn2nc(-c3cccc(O)c3)nc2c1 [Example 87, 2-Methyl-2H-pyrazole-3,4-dicarboxylic acid 3-{[2-(3-hydroxy-phenyl)-[1,2,4]triazolo[1,5-a]pyridin-7-yl]-amide} 4-[(2-methoxy-ethyl)-methyl-amide]]"
7,0.42 nM,"COCCN(C)C(=O)c1cnn(C)c1C(=O)Nc1ccn2nc(-c3cccc(OCCF)c3)nc2c1 [Example 88, 2-Methyl-2H-pyrazole-3,4-dicarboxylic acid 3-({2-[3-(2-fluoro-ethoxy)-phenyl]-[1,2,4]triazolo[1,5-a]pyridin-7-yl}-amide)4-[(2-methoxy-ethyl)-methyl-amide]]"
8,0.41 nM,"Cn1ncc(C(=O)N2CCOCC2)c1C(=O)Nc1ccn2nc(-c3cccc(O)c3)nc2c1 [Example 80, 2-Methyl-4-(morpholine-4-carbonyl)-2H-pyrazole-3-carboxylic acid [2-(3-hydroxy-phenyl)-[1,2,4]triazolo[1,5-a]pyridin-7-yl]-amide]"
9,0.32 nM,"COc1cccc(-c2nc3cc(NC(=O)c4c(C(=O)N(C)C)cnn4C)ccn3n2)c1 [Example 78, 2-Methyl-2H-pyrazole-3,4-dicarboxylic acid 4-dimethylamide 3-{[2-(3-methoxy-phenyl)[1,2,4]triazolo[1,5-a]pyridin-7-yl]-amide}]"
10,0.31 nM,"COc1cccc(-c2nc3cc(NC(=O)c4c(C(=O)N5CCC5)cnn4C)ccn3n2)c1 [Example 75, 4-(Azetidine-1-carbonyl)-2-methyl-2H-pyrazole-3-carboxylic acid [2-(3-methoxy-phenyl)-[1,2,4]triazolo[1,5-a]pyridin-7-yl]-amide]"
11,0.31 nM,"COc1ccccc1-c1nc2cc(NC(=O)c3c(C(=O)N(C)C)cnn3C)ccn2n1 [Example 97, 2-Methyl-2H-pyrazole-3,4-dicarboxylic acid 4-dimethylamide 3-{[2-(2-methoxy-phenyl)-[1,2,4]triazolo[1,5-a]pyridin-7-yl]-amide}]"
